Test results taken from patent US20030064414A1, “Rapid assessment of coagulation activity in whole blood” (priority 2001, published 2003).

Tested on: whole blood
Test: Recalcified clotting time of citrated whole blood, aprotinin and lipidated tissue factor added at assay initiation
Assay type: biochemical
Source text: In the previous examples, blood was always collected in the presence of a calcium-chelating anticoagulant (citrate) and contact pathway inhibitor (aprotinin or corn trypsin inhibitor). It would be desirable for certain applications, for example hospital emergency department use, if blood could be […] into a standard commercially available and FDA-approved sodium citrate tube, such as that supplied by Becton Dickinson, Franklin Lakes, N.J. and Greiner America, Monroe, N.C. and the contact pathway inhibitor added concomitantly during assay initiation with lipidated tissue factor and divalent calcium. In this example, blood from a single donor was collected into sterile evacuated-tubes containing 3.2% buffered sodium citrate (Greiner). In FIG. 7A, clotting was initiated with calcium in the presence or absence of 15,000 KIU/ml aprotinin (Centerchem Inc., Norwalk, Conn.). […] In contrast, blood recalcified in the absence of aprotinin clotted in 250 sec. Thus, the contact pathway of blood coagulation has been abolished. FIG. 7B depicts a dose-response to Lovenox® when citrated blood was recalcified in the presence of 15,000 U/ml aprotinin and 10 units of lipidated tissue factor.
(>1500 sec) to 180 sec. The correlation (R^2) of clotting time to Enoxaparin® dose was 0.9915. The slope was 550 and intercept 210 sec. […]

aprotinin
recalcified clotting time (citrated blood, calcium and 15,000 KIU/ml aprotinin, no tissue factor, 1500 sec maximal clotting time, FIG. 7A): > 1500 s

lipidated tissue factor: lipidated recombinant tissue factor with synthetic phospholipids, procoagulant that initiates the extrinsic pathway
recalcified clotting time (citrated blood recalcified with 15,000 U/ml aprotinin and 10 units of lipidated tissue factor): 180 s
